In patent US20200231638A1, “STABILIZED ANTI-MICROBIAL PEPTIDES” (priority 2015, published 2020):
Bridge positions count the residues as written; N and C are the ends. Square brackets hold non-standard residues; d marks the D form. Peptide text beside a SMILES is read from it. R8 = C=CCCCCCC[C@@](C)(N)C(=O)O; S5 = C=CCCC[C@](C)(N)C(=O)O; Nle = CCCC[C@H](N)C(=O)O

Tests used:
P. aeruginosa = type: cell-based, Pseudomonas aeruginosa
Outline: (§1)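 MIC read as the minimum peptide concentration showing no visible growth after 20-24 hours at 37° C. Cultures were grown overnight, then regrown several hours before testing. Medium was MHB refined by anion exchange to strip polyanions; final inoculum 5×10^5 CFU/ml.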

E. coli = type: cell-based, Escherichia coli
Outline: as §1

B. cereus = type: cell-based, Bacillus cereus
Outline: as §1

S. aureus = type: cell-based, Staphylococcus aureus
Outline: as §1

human red blood cells = type: cell-based; settings: red cells of human, 1 h, 25
Outline: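 Hemolysis expressed as absorbance of released hemoglobin (570 nm) normalized between untreated and 1% Triton-X100 controls, with MHC taken as peptide concentration giving under 1% release. Peptide dilutions were exposed for 1 h at 37° C to a 1% (v/v) suspension of washed human red cells in PBS.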

Row | Compound | MIC P. aeruginosa (P. aeruginosa) | MIC E. coli (E. coli) | MIC B. cereus (B. cereus) | MIC S. aureus (S. aureus) | % Hemolysis at 25 μg/ml (human red blood cells)
1 | CCCC[C@H](NC(=O)[C@]1(C)CCCC=CCCC[C@](C)(NC(=O)[C@H](C)NC(=O)[C@H](CCCCN)NC(=O)CNC(=O)[C@H](Cc2ccccc2)NC(=O)[C@H](CCCCN)NC(=O)[C@H](CCCCN)NC(=O)[C@H](C)NC(=O)[C@H](CO)NC(=O)[C@H](Cc2c[nH]cn2)NC(=O)[C@H](CC(C)C)NC(=O)[C@H](Cc2ccccc2)NC(=O)[C@H](CCCCN)NC(=O)CNC(=O)[C@@H](NC(=O)CN)[C@@H](C)CC)C(=O)N[C@@H](C(C)C)C(=O)NCC(=O)N[C@@H](CCC(=O)O)C(=O)N1)C(=O)N[C@@H](CC(N)=O)C(=O)N[C@@H](CCC(=O)O)C(N)=O [Mag(i + 4)15(S23E), GIGKFLHSAKKFGKAXVGEXBNE] (H-GIGKFLHSAKKFGKA[S5]VGE[S5][Nle]NE-NH2; staple 16-20) | 12.5 µg/mL | 3.1 µg/mL | 12.5 µg/mL | 25 µg/mL | 4.9%
2 | CCCC[C@H](NC(=O)[C@]1(C)CCCC=CCCC[C@](C)(NC(=O)[C@H](C)NC(=O)[C@H](CCCCN)NC(=O)CNC(=O)[C@H](Cc2ccccc2)NC(=O)[C@H](CCCCN)NC(=O)[C@H](CCCCN)NC(=O)[C@H](C)NC(=O)[C@H](CO)NC(=O)[C@H](Cc2c[nH]cn2)NC(=O)[C@H](CC(C)C)NC(=O)[C@H](Cc2ccccc2)NC(=O)[C@H](CCCCN)NC(=O)CNC(=O)[C@@H](NC(=O)CN)[C@@H](C)CC)C(=O)N[C@@H](C(C)C)C(=O)NCC(=O)N[C@@H](CCC(=O)O)C(=O)N1)C(=O)N[C@@H](CC(N)=O)C(=O)N[C@@H](CCCCN)C(N)=O [Mag(i + 4)15(S23K), GIGKFLHSAKKFGKAXVGEXBNK] (H-GIGKFLHSAKKFGKA[S5]VGE[S5][Nle]NK-NH2; staple 16-20) | 3.1 µg/mL | 1.6 µg/mL | 6.2 µg/mL | 50 µg/mL | 5.0%
3 | CCCC[C@H](NC(=O)[C@]1(C)CCCC=CCCC[C@](C)(NC(=O)[C@H](C)NC(=O)[C@H](CCCCN)NC(=O)CNC(=O)[C@H](Cc2ccccc2)NC(=O)[C@H](CCCCN)NC(=O)[C@H](CCCCN)NC(=O)[C@H](C)NC(=O)[C@H](CO)NC(=O)[C@H](Cc2c[nH]cn2)NC(=O)[C@H](CC(C)C)NC(=O)[C@H](Cc2ccccc2)NC(=O)[C@H](CCCCN)NC(=O)CNC(=O)[C@@H](NC(=O)CN)[C@@H](C)CC)C(=O)N[C@@H](CCC(=O)O)C(=O)NCC(=O)N[C@@H](CCC(=O)O)C(=O)N1)C(=O)N[C@@H](CC(N)=O)C(=O)N[C@@H](CO)C(N)=O [Mag(i + 4)15(V17E), GIGKFLHSAKKFGKAXEGEXBNS] (H-GIGKFLHSAKKFGKA[S5]EGE[S5][Nle]NS-NH2; staple 16-20) | >50 µg/mL | 50 µg/mL | >50 µg/mL | >50 µg/mL | 0.5%
4 | CCCC[C@H](NC(=O)[C@]1(C)CCCC=CCCC[C@](C)(NC(=O)[C@H](C)NC(=O)[C@H](CCCCN)NC(=O)CNC(=O)[C@H](Cc2ccccc2)NC(=O)[C@H](CCCCN)NC(=O)[C@H](CCCCN)NC(=O)[C@H](C)NC(=O)[C@H](CO)NC(=O)[C@H](Cc2c[nH]cn2)NC(=O)[C@H](CC(C)C)NC(=O)[C@H](Cc2ccccc2)NC(=O)[C@H](CCCCN)NC(=O)CNC(=O)[C@@H](NC(=O)CN)[C@@H](C)CC)C(=O)N[C@@H](CCCCN)C(=O)NCC(=O)N[C@@H](CCC(=O)O)C(=O)N1)C(=O)N[C@@H](CC(N)=O)C(=O)N[C@@H](CO)C(N)=O [Mag(i + 4)15(V17K), GIGKFLHSAKKFGKAXKGEXBNS] (H-GIGKFLHSAKKFGKA[S5]KGE[S5][Nle]NS-NH2; staple 16-20) | 12.5 µg/mL | 3.1 µg/mL | 50 µg/mL | >50 µg/mL | 2.2%
5 | CCCC[C@H](NC(=O)[C@]1(C)CCCC=CCCC[C@](C)(NC(=O)[C@H](C)NC(=O)[C@H](CCCCN)NC(=O)CNC(=O)[C@H](Cc2ccccc2)NC(=O)[C@H](CCCCN)NC(=O)[C@H](CCCCN)NC(=O)[C@H](C)NC(=O)[C@H](CO)NC(=O)[C@H](Cc2c[nH]cn2)NC(=O)[C@H](CC(C)C)NC(=O)[C@H](Cc2ccccc2)NC(=O)[C@H](CCCCN)NC(=O)CNC(=O)[C@@H](NC(=O)CN)[C@@H](C)CC)C(=O)N[C@@H](C(C)C)C(=O)NCC(=O)N[C@@H](CCC(=O)O)C(=O)N1)C(=O)N[C@@H](CC(N)=O)C(=O)N[C@@H](CO)C(N)=O [Mag(i + 4)15] (H-GIGKFLHSAKKFGKA[S5]VGE[S5][Nle]NS-NH2; staple 16-20) | 6.2 µg/mL | 1.6 µg/mL | 6.2 µg/mL | 12.5 µg/mL | 11.9%
6 | CC[C@H](C)[C@H](NC(=O)CN)C(=O)NCC(=O)N[C@@H](CCCCN)C(=O)N[C@@H](Cc1ccccc1)C(=O)N[C@@H](CC(C)C)C(=O)N[C@@H](Cc1c[nH]cn1)C(=O)N[C@@H](CO)C(=O)N[C@@H](C)C(=O)N[C@@H](CCCCN)C(=O)N[C@@H](CCCCN)C(=O)N[C@@H](Cc1ccccc1)C(=O)NCC(=O)N[C@@H](CCCCN)C(=O)N[C@@H](C)C(=O)N[C@@H](Cc1ccccc1)C(=O)N[C@@]1(C)CCCC=CCCC[C@@](C)(C(=O)N[C@@H](CC(N)=O)C(=O)N[C@@H](CO)C(N)=O)NC(=O)[C@H]([C@@H](C)CC)NC(=O)[C@H](CCC(=O)O)NC(=O)CNC1=O [Mag(i + 4)16, GIGKFLHSAKKFGKAFXGEIXNS] (H-GIGKFLHSAKKFGKAF[S5]GEI[S5]NS-NH2; staple 17-21) | 6.2 µg/mL | 3.1 µg/mL | 12.5 µg/mL | 50 µg/mL | 7.8%
7 | CCCC[C@@H]1NC(=O)[C@H]([C@@H](C)CC)NC(=O)[C@H](CCC(=O)O)NC(=O)[C@@](C)(NC(=O)[C@@H](NC(=O)[C@H](Cc2ccccc2)NC(=O)[C@H](C)NC(=O)[C@H](CCCCN)NC(=O)CNC(=O)[C@H](Cc2ccccc2)NC(=O)[C@H](CCCCN)NC(=O)[C@H](CCCCN)NC(=O)[C@H](C)NC(=O)[C@H](CO)NC(=O)[C@H](Cc2c[nH]cn2)NC(=O)[C@H](CC(C)C)NC(=O)[C@H](Cc2ccccc2)NC(=O)[C@H](CCCCN)NC(=O)CNC(=O)[C@@H](NC(=O)CN)[C@@H](C)CC)C(C)C)CCCC=CCCC[C@@](C)(C(=O)N[C@@H](CO)C(N)=O)NC1=O [Mag(i + 4)17] (H-GIGKFLHSAKKFGKAFV[S5]EI[Nle][S5]S-NH2; staple 18-22) | 6.2 µg/mL | 1.6 µg/mL | 1.6 µg/mL | 3.1 µg/mL | 56.0%
8 | CCCC[C@@H]1NC(=O)[C@H]([C@@H](C)CC)NC(=O)[C@@](C)(NC(=O)CNC(=O)[C@@H](NC(=O)[C@H](Cc2ccccc2)NC(=O)[C@H](C)NC(=O)[C@H](CCCCN)NC(=O)CNC(=O)[C@H](Cc2ccccc2)NC(=O)[C@H](CCCCN)NC(=O)[C@H](CCCCN)NC(=O)[C@H](C)NC(=O)[C@H](CO)NC(=O)[C@H](Cc2c[nH]cn2)NC(=O)[C@H](CC(C)C)NC(=O)[C@H](Cc2ccccc2)NC(=O)[C@H](CCCCN)NC(=O)CNC(=O)[C@@H](NC(=O)CN)[C@@H](C)CC)C(C)C)CCCC=CCCC[C@@](C)(C(N)=O)NC(=O)[C@H](CC(N)=O)NC1=O [Mag(i + 4)18, GIGKFLHSAKKFGKAFVGXIBNX] (H-GIGKFLHSAKKFGKAFVG[S5]I[Nle]N[S5]-NH2; staple 19-23) | 3.1 µg/mL | 1.6 µg/mL | 3.1 µg/mL | 1.6 µg/mL | 96.5%
9 | CCCC[C@H](NC(=O)[C@@H](NC(=O)[C@H](CCC(=O)O)NC(=O)CNC(=O)[C@@H](NC(=O)[C@H](Cc1ccccc1)NC(=O)[C@H](C)NC(=O)[C@H](CCCCN)NC(=O)CNC(=O)[C@H](Cc1ccccc1)NC(=O)[C@H](CCCCN)NC(=O)[C@H](CCCCN)NC(=O)[C@]1(C)CCCC=CCCCCCC[C@@](C)(NC(=O)CN)C(=O)NCC(=O)N[C@@H](CCCCN)C(=O)N[C@@H](Cc2ccccc2)C(=O)N[C@@H](CC(C)C)C(=O)N[C@@H](Cc2c[nH]cn2)C(=O)N[C@@H](CO)C(=O)N1)C(C)C)[C@@H](C)CC)C(=O)N[C@@H](CC(N)=O)C(=O)N[C@@H](CO)C(N)=O [Mag(i + 7)1] (H-G[R8]GKFLHS[S5]KKFGKAFVGEI[Nle]NS-NH2; staple 2-9 (inferred); N-terminus and C-terminus assumed) | 3.1 µg/mL | 3.1 µg/mL | 3.1 µg/mL | 12.5 µg/mL | 49.9%
